Test results reported in patent publication US7592419.
Like-named read-outs stand apart in the source and are kept apart here.

Conditions: rcm bond, CH2Cl2, 25.0 °C

For `COC(=O)[C@@H]1CCCCC=CCCCC[C@H](NC(=O)OCc2ccccc2)C(=O)N2C[C@@H]3OC(C)(C)C[C@@H]3[C@H]2C(=O)N1`, the ring closure, yield of all isomers (from C=CCCCC[C@H](NC(=O)[C@@H]1[C@H]2CC(C)(C)O[C@H]2CN1C(=O)[C@H](CCCCC=C)NC(=O)OCc1ccccc1)C(=O)OC, Grubbs I [(Cy3P)2Cl2Ru=CHPh], 50.0 mM, 24.0 h) was 58.9%.

For `COC(=O)[C@@H]1CCCCC=CCCCC(C)(C)[C@H](NC(=O)OCc2ccccc2)C(=O)N2C[C@H]3[C@@H]([C@H]2C(=O)N1)C3(C)C`, the ring closure, yield of all isomers (from C=CCCCC[C@H](NC(=O)[C@@H]1[C@@H]2[C@H](CN1C(=O)[C@@H](NC(=O)OCc1ccccc1)C(C)(C)CCCC=C)C2(C)C)C(=O)OC, Grubbs catalyst (Grubbs I), 101.1 mM, 24.0 h) was 44.5%.

`COC(=O)[C@@H]1CCCCC=CCCCC[C@H](NC(=O)OC(C)(C)C)C(=O)N2C[C@H]3[C@@H]([C@H]2C(=O)N1)C3(C)C` showed a ring closure, yield of all isomers (from C=CCCCC[C@H](NC(=O)[C@@H]1[C@@H]2[C@H](CN1C(=O)[C@H](CCCCC=C)NC(=O)OC(C)(C)C)C2(C)C)C(=O)OC, Grubbs I [(Cy3P)2Cl2Ru=CHPh], 100.0 mM, 24.0 h) of 48.2%.

With `COC(=O)CNC(=O)C(O)[C@@H]1CCCC=CCC[C@H](NC(=O)OCC(C)C)C(=O)N2CCC[C@H]2C(=O)N1` (stereo partly shown) the ring closure, yield of all isomers (from C=CCCC[C@H](NC(=O)[C@@H]1CCCN1C(=O)[C@H](CCC=C)NC(=O)OCC(C)C)C(O)C(=O)NCC(=O)OC, Grubbs catalyst (Grubbs I), 3.0 mM, 65.0 h) was 20%.
